± gives the expanded uncertainty stated by the source.
Settings: 101.33 kPa, Liquid

For `C1COCCO1` [1,4-dioxane], the mass density (288.15 K) was 1038.78 ± 0.24 kg/m3, the mass density (293.15 K) was 1033.16 ± 0.23 kg/m3 and the mass density (298.15 K) was 1027.51 ± 0.22 kg/m3. It also gave a mass density (303.15 K) of 1021.84 ± 0.21 kg/m3.
`CC#N` [acetonitrile] showed a mass density (288.15 K) of 787.38 ± 0.23 kg/m3, a mass density (293.15 K) of 782.01 ± 0.24 kg/m3 and a mass density (298.15 K) of 776.62 ± 0.24 kg/m3. The mass density (303.15 K) was 771.19 ± 0.25 kg/m3.
`CC(C)OC(C)C` [diisopropyl ether] showed a mass density (288.15 K) of 728.82 ± 0.94 kg/m3, a mass density (293.15 K) of 723.67 ± 0.95 kg/m3 and a mass density (298.15 K) of 718.46 ± 0.96 kg/m3. The mass density (303.15 K) was 713.21 ± 0.97 kg/m3.
`C1CCOC1` [tetrahydrofuran] showed a mass density (288.15 K) of 892.86 ± 0.33 kg/m3, a mass density (293.15 K) of 887.52 ± 0.34 kg/m3 and a mass density (298.15 K) of 882.04 ± 0.35 kg/m3. The mass density (303.15 K) was 876.54 ± 0.36 kg/m3.
